Reference: US9249102B2 (priority 2012, dated 2016)
Read-outs that look alike come from different tables or passages of the source.

Experiments:
Haemonchus contortus = test: Method A: Haemonchus contortus L1 larvae, microtitre plate screen; conditions: 96 h, read-out: motility inhibition
[1] = Method G: permeability in the Caco-2/TC7 in vitro model; conditions: human, Caco-2, pH 6.5
Cooperia oncophora = test: Method C: Cooperia oncophora L1 larvae in vitro; conditions: 96 h, read-out: inhibition of motility
[2] = system: microfilaria of Dirofilaria immitis; test: Method F: microfilaria of Dirofilaria immitis, survival at 24 hours
[3] = survival of microfilaria at 24 hours

Row | Structure (SMILES) | inhibition at 5 µg/mL (Haemonchus contortus) [%] | Papp A→B at 20 μM [1] [×10⁻⁶ cm/s] | inhibition at 5 µg/mL (Cooperia oncophora) [%] | EC50 [2, 3] [µg/mL] | EC50 [2] [µg/mL]
1 | COc1ccc2oc(CN3CCN(C(=O)CO[C@H]4CC[C@H](Nc5ccc([N+](=O)[O-])c(C(F)(F)F)c5)CC4)CC3)cc2c1 [Compound 323, 2-[(4-[[4-nitro-3-(trifluoromethyl)phenyl]amino]cyclohexyl)-oxy]1-[4-(5-methoxybenzofuran-2-ylmethyl)piperazin-1-yl]ethan-1-one] | ≥ 90 | 11.9 |  |  | 
2 | O=C(CO[C@H]1CC[C@H](Nc2ccc([N+](=O)[O-])c(C(F)(F)F)c2)CC1)N1CCN(C(=O)C2Cc3cc(F)ccc3O2)CC1 (stereo partly shown) [Compound 80, 1-[4-(5-fluoro-2,3-dihydro-benzofuran-2-carbonyl)-piperazin-1-yl]-2-[4-(4-nitro-3-trifluoromethyl-phenylamino)-cyclohexyloxy]-ethanone] | ≥ 90 | 12.1 |  |  | 
3 | O=C(CO[C@H]1CC[C@H](Nc2ccc([N+](=O)[O-])c(C(F)(F)F)c2)CC1)N1CCN(c2cnc3ccccc3c2)CC1 [Compound 336, 2-[4-[4-nitro-3-(trifluoromethyl)anilino]cyclohexoxy]-1-[4-(3-quinolyl)piperazin-1-yl]ethanone] | ≥ 90 | 7.9 |  |  | 
4 | N#Cc1ccc(N[C@H]2CC[C@H](OCC(=O)N3CCN(CC4Cc5cc(Cl)ccc5O4)CC3)CC2)cc1C(F)(F)F (stereo partly shown) [Compound 82] | ≥ 90 | 7.1 |  |  | 
5 | O=C(CO[C@H]1CC[C@H](Nc2ccc([N+](=O)[O-])c(C(F)(F)F)c2)CC1)N1CCN(Cc2cc3ccc(Cl)cc3o2)CC1 [Compound 322, 2-[(4-[[4-nitro-3-(trifluoromethyl)phenyl]amino]cyclohexyl)-oxy]1-[4-(6-chlorobenzofuran-2-ylmethyl)piperazin-1-yl]ethan-1-one] | ≥ 90 | 7.9 |  |  | 
6 | CC(c1ccc2cc(F)ccc2c1)N1CCN(C(=O)CO[C@H]2CC[C@H](Nc3ccc([N+](=O)[O-])c(C(F)(F)F)c3)CC2)CC1 (stereo partly shown) [Compound 298, 2-[(4-[[4-nitro-3-(trifluoromethyl)phenyl]amino]cyclohexyl)-oxy]1-[4-[1-(6-fluoronaphthalen-2-yl)ethyl]piperazin-1-yl]ethan-1-one] | ≥ 90 |  | ≥ 90 | < 1 | 
7 | Cc1cc(N2CCN(C(=O)CO[C@H]3CC[C@H](Nc4ccc([N+](=O)[O-])c(C(F)(F)F)c4)CC3)CC2)nc2ccc(Cl)cc12 [Compound 270, 1-[4-(6-chloro-4-methyl-2-quinolyl)piperazin-1-yl]-2-[4-[4-nitro-3-(trifluoromethyl)anilino]cyclohexoxy]ethanone] | ≥ 90 |  | ≥ 90 | < 1 | 
8 | C[C@@H]1CN(CC2Cc3cc(F)ccc3O2)[C@@H](C)CN1C(=O)CO[C@H]1CC[C@H](Nc2ccc([N+](=O)[O-])c(C(F)(F)F)c2)CC1 (stereo partly drawn) [Compound 307, 1-[(2R,5S)-4-(5-fluoro-2,3-dihydro-benzofuran-2-ylmethyl)-2,5-dimethyl-piperazin-1-yl]-2-[4-(4-nitro-3-trifluoromethyl-phenylamino)-cyclohexyloxy]-ethanone] | ≥ 90 |  | ≥ 90 | < 0.1 | 
9 | CN(c1ccc([N+](=O)[O-])c(C(F)(F)F)c1)[C@H]1CC[C@H](OCC(=O)N2CCN(c3ccc4cc(Cl)ccc4n3)CC2)CC1 [Compound 246, 1-[4-(6-chloroquinolin-2-yl)piperazin-1-yl]-2-[[4-[methyl[4-nitro-3-(trifluoromethyl)phenyl]amino]cyclohexyl]oxy]ethan-1-one] | ≥ 90 |  | ≥ 90 |  | < 1
10 | O=C(CO[C@H]1CC[C@H](Nc2ccc([N+](=O)[O-])c(C(F)(F)F)c2)CC1)N1CCN(Cc2ccc3c(C(F)(F)F)cccc3n2)CC1 [Compound 329, 2-[4-(4-nitro-3-trifluoromethyl-phenylamino)-cyclohexyloxy]-1-[4-(5-trifluoromethyl-quinolin-2-ylmethyl)-piperazin-1-yl]-ethanone] | ≥ 90 | 5.6 |  |  | 
11 | N#Cc1ccc(N[C@H]2CC[C@H](OCC(=O)N3CCN(c4cnc5ccccc5c4)CC3)CC2)cc1C(F)(F)F [Compound 335, 4-[[4-[2-oxo-2-[4-(3-quinolyl)piperazin-1-yl]ethoxy]cyclohexyl]amino]-2-(trifluoromethyl)benzonitrile] | ≥ 90 | 15 |  |  | 
12 | O=C(CO[C@H]1CC[C@H](Nc2ccc([N+](=O)[O-])c(C(F)(F)F)c2)CC1)N1CCN(Cc2ccc3cc(C(F)(F)F)ccc3n2)CC1 [Compound 332, 2-[4-(4-nitro-3-trifluoromethyl-phenylamino)-cyclohexyloxy]-1-[4-(6-trifluoromethyl-quinolin-2-ylmethyl)-piperazin-1-yl]-ethanone] | ≥ 90 | 6.5 |  |  | 
13 | Cc1cc(N2CCN(C(=O)CO[C@H]3CC[C@H](Nc4ccc([N+](=O)[O-])c(C(F)(F)F)c4)CC3)CC2)nc2ccc(F)cc12 [Compound 99, 1-[4-(6-fluoro-4-methyl-2-quinolyl)piperazin-1-yl]-2-[4-[4-nitro-3-(trifluoromethyl)anilino]cyclohexoxy]ethanone] | ≥ 90 |  | ≥ 90 | < 1 | 
14 | CC(c1cc2cc(Cl)ccc2o1)N1CCN(C(=O)CO[C@H]2CC[C@H](Nc3ccc([N+](=O)[O-])c(C(F)(F)F)c3)CC2)CC1 (stereo partly shown) [Compound 300] | ≥ 90 |  | ≥ 90 | < 0.1 | 
15 | N#Cc1ccc(N[C@H]2CC[C@H](OCC(=O)N3CCN(c4ccc5cc(F)ccc5c4F)CC3)CC2)cc1C(F)(F)F [Compound 290, 4-(4-{2-[4-(1,6-difluoro-naphthalen-2-yl)-piperazin-1-yl]-2-oxo-ethoxy}-cyclohexylamino)-2-trifluoromethyl-benzonitrile] | ≥ 90 |  | ≥ 90 | < 1 | 
16 | O=C(CO[C@H]1CC[C@H](Nc2ccc([N+](=O)[O-])c(C(F)(F)F)c2)CC1)N1CCN(c2ccc3cc(Cl)ccc3n2)CC1 [Compound 90, 1-[4-(6-chloroquinolin-2-yl)piperazin-1-yl]-2-[(4-[[4-nitro-3-(trifluoromethyl)phenyl]amino]cyclohexyl)oxy]ethan-1-one] | ≥ 90 |  | ≥ 90 | < 0.1 | 
17 | C[C@@H]([C@H]1Cc2cc(F)ccc2O1)N1CCN(C(=O)COC2CCC(Nc3ccc([N+](=O)[O-])c(C(F)(F)F)c3)CC2)CC1 (relative stereo) [Compound 260, 1-(4-((S)-1-((R)-5-fluoro-2,3-dihydrobenzofuran-2-yl)ethyl)piperazin-1-yl)-2-(4-(4-nitro-3-(trifluoromethyl)phenylamino)cyclohexyloxy)ethanone] | ≥ 90 |  | ≥ 90 | < 1 | 
18 | CN(c1ccc([N+](=O)[O-])c(C(F)(F)F)c1)[C@H]1CC[C@H](OCC(=O)N2CCN(c3ccc4cc(Br)ccc4n3)CC2)CC1 [Compound 269, 2-[(4-[methyl-[4-nitro-3-(trifluoromethyl)phenyl]amino]cyclohexyl)-oxy]1-[4-(6-bromoquinolin-2-yl)piperazin-1-yl]ethan-1-one] | ≥ 90 |  | ≥ 90 | < 5 | 
